These results are taken from patent US10537518B2, “Homogenization system of drugs into biodegradable polymer: smart polymer system” (Juvic Inc., priority 2015, dated 2020).

Data set [1] is described as follows: Colloid morphology and size by scanning electron microscope (SEM). The format is physicochemical. As to conditions: colloids of HA and PVP 1:1 with drug. As for the experimental part: (§1) The morphology of a colloidal structure of a polymer was analyzed using a scanning electron microscope (SEM; equipped with Type JEOL (JSM-7001F) energy-dispersive X-ray (EDX) Oxford ISIS 300 micro-analysis system). For this experiment, platinum coating was performed at 10 mA to protect colloids from high-energy beams. Also, a decrease in the size of the colloids was confirmed using a transmission electron microscope (TEM), and this confirmation was performed on a very thin sample formed on a copper grid as an upper cover provided in the grid. A TEM micrograph was obtained at 120 kV using a JEM 2010 (HC) (JEOL Ltd, USA) microscope. The amorphous form of the drug in the colloidal structure was confirmed using a random XRD analysis on the sample, and continuously scanned at intervals of 3-80° 2θ using an Ultima IV diffractometer (Rigaku Corporation, Japan) with Bragg-Brentano geometry (2θ/θ) having 40 kV/30 mA X-ray and K-beta filter radiations.

The nature of data set [2]: In vitro drug release by Franz cell diffusion. As to conditions: pig skin; for release of drug from SPS microneedles: n=3; for time to diffusion after application: from SPS microneedles. The format is in vitro ADME. The protocol:
In vitro analysis was performed using Franz cell diffusion. Microneedles containing 0.1% NR and 0.75% CAP were applied onto the skin of a dead pig, and put on donor moieties of Franz cells. A receptor moiety was composed of PBS including 20% ethanol. A sample was analyzed at intervals of 0, 0.5, 1, 2, 3, 4, 5, 6, 12, and 24 hours. The quantification of NR and CAP was performed at 559 nm and 280 nm using UV-Vis spectroscopy (Jasco, V650) and Ultra Performance Liquid Chromatography (UPLC) (Acquity UPLC, Waters), respectively. The amounts of NR and CAP in a microneedle patch were determined by dissolving the patch in PBS including 10% ethyl acetate and 20% ethanol, respectively. Thereafter, solid-phase extraction was performed using ethyl acetate as an eluent. A microneedle patch having no drug was used as the control. 0.1% NR dissolved in 20% ethyl acetate and CAP dissolved in 40% ethanol were used in a topical formulation model. This model was most widely used for a formulation of a lipophilic compound in which an organic solvent was used to dissolve the lipophilic drug. 1 mL of such a topical formulation was dropped on the skin of a pig until the topical formulation was diffused to an area of approximately 2 cm^2.
Also, the size of CAP particles released during diffusion of the Franz cells in the skin of a dead pig (FIG. 4C) was measured. PBS solution samples were taken from the Franz cell receptor after 0, 6, 12, 24 hours of application of the CAP microneedles, and the particle sizes of the samples were measured through SEM image analysis.

Data set [3] concerns IL-1β. Kind of data set: Serum IL-1β by ELISA in CIA mice. The format is in vivo, DBA/1 mice. As to conditions: versus RA model.
Data set [4] is described as follows: Colloid size by transmission electron microscope (TEM). To be noted: colloids of HA and PVP 1:1 with drug. The format is physicochemical. As for the experimental part: as §1
Data set [5] is described as follows: Particle size analysis with particle size analyzer. The data set is classed as physicochemical. As to conditions: for size of commercially available crystalline drug: crude powder, before homogenization. As for the experimental part: Particle size analysis was performed using a particle size analyzer (Schimdzu, Japan). […] To uniformly mix drugs having a polymer combination and a colloid formulation, the drugs were homogenized at an optimum rotary speed of 21,000 rpm for 5 minutes using a rotor homogenizer (Homogenizer Power Gen 500, Fisher Scientific, USA). Ultrasonication was performed at […] using an ultrasonicator (Sonic vibra cell, USA). In the size analysis, distilled water was used as a solvent, and an average of values obtained reading each of samples three times was calculated. The particle size reading was performed at an interval of 30 minutes due to the tendency of the drug to be crystallized when the drug is exposed to distilled water for a long period of time.

For data set [6] the following is noted: cited from earlier work.
Setting [7] is: homogenized with CMC (10% by weight), 0.1% NR, 0.75% CAP.
[8] abbreviates: homogenized with HA (10% by weight), 0.1% NR, 0.75% CAP.
Where [9] appears, read: homogenized with PVA (10% by weight), 0.1% NR, 0.75% CAP.
Setting [10] is: homogenized with PVP (10% by weight), 0.1% NR, 0.75% CAP.
The mark [11] stands for this setting: homogenized, polymer composition: None.
Where [12] appears, read: in HA and PVP (1:1) smart polymer system.

Bounds are passed on as bounds.

Take `COc1cc(CNC(=O)CCCC/C=C/C(C)C)ccc1O` [CAP, capsaicin]: in data set [1], the “circular colloidal particle size (SEM)” value is reported as “approximately 155±8 nm”. In data set [2] (0.75% CAP microneedles, after 12 hours of application), the “release of drug from SPS microneedles” value was 86%. Also, the “time to diffusion after application” value in data set [2] is reported as “within an hour”. In addition, in data set [3], the “decrease of serum IL-1β level” value is “approximately 50%”. Further, in data set [4], the “colloidal structure particle size (TEM)” value is 154±3 nm. Also, in data set [5], the “size of commercially available crystalline drug” value was determined as 4.845±3 μm. Besides, the particle size was determined as 43.856 ± 3 μm in data set [5] (setting [7]); 9.736 ± 2 μm in data set [5] (setting [8]); 2.676 ± 7 μm in data set [5] (setting [9]); 1.432 ± 3 μm in data set [5] (setting [10]); 0.986±6 μm in data set [5] (setting [11]); 167.4±4 nm in data set [5] (setting [12]).
Broadly, the log P is the decadic logarithm of the partition coefficient of the neutral form, usually between octanol and water. Regarding `CCN(CC)c1ccc2nc3c4ccccc4c(=O)cc-3oc2c1` [NR, Nile Red], the lipophilicity (log P) in data set [6] is listed as 5. Moreover, the “circular colloidal particle size (SEM)” value in data set [1] is reported as “approximately 168±12 nm”. For the same molecule, the “release of drug from SPS microneedles” value in data set [2] (0.1% NR microneedles, after 8 hours of application) is 74%. Besides, the “time to diffusion after application” value in data set [2] was no more than 30 min. For the same molecule, in data set [4], the “colloidal structure particle size (TEM)” value turned out to be 161±32 nm. For the same molecule, in data set [5], the “size of commercially available crystalline drug” value was 6.723±5 μm. Also, the particle size is 67.733 ± 8 μm in data set [5] (setting [7]); 11.083 ± 4 μm in data set [5] (setting [8]); 4.243 ± 8 μm in data set [5] (setting [9]); 1.564 ± 3 μm in data set [5] (setting [10]); 1.797±7 μm in data set [5] (setting [11]); 157.4±6 nm in data set [5] (setting [12]).
